Reference: patent publication US20230095926A1, “PARASITE CONTROL IN RUMINANTS” (Intervet Inc., priority 2019, published 2023)

Assays:
Assay type in all cases: in vivo
[1] = test system: sheep body lice (Bovicola ovis); experiment: Persistency determination, lice challenge of treated lice free Merino sheep with 5 months wool growth; details: 3.0 mg/kg s.c., Day 21-28 challenge, counts 7, 14, 21, 42 and 84 days post-challenge
Protocol: In this study the persistent efficacy of fluralaner when administered once subcutaneously at doses of 1.0, 2.0 and 3.0 mg/kg body weight against sheep body lice (Bovicola ovis) infestation on Merino sheep with 5 months wool growth was evaluated.
Fluralaner was administered to sheep in three groups each at 1.0, 2.0 and 3.0 mg fluralaner/kg bodyweight. The dose was administered subcutaneously. Three groups were left untreated as negative control groups.
From Day 21-28, 49-56 and Day 77-84 post-treatment one group of untreated negative control sheep and one group of sheep treated at 1.0, 2.0 and 3.0 mg/kg were challenged with lice by close confinement with lice infested sheep and manual transfer of lice. Following the challenges lice counts were conducted 7, 14, 21, 42 and 84 days±1-day post-challenge (not all counts conducted for all challenges).

[2] = test system: sheep body lice (Bovicola ovis), diazinon resistant; experiment: Off-shears/short wool lice efficacy study, single subcutaneous dose, Merino sheep; details: for Sheep Body Lice Efficacy Based on Geometric Means Day 7: Day 7 post-treatment; for Sheep Body Lice Efficacy Based on Geometric Means Day 14: Day 14 post-treatment; for Sheep Body Lice Efficacy Based on Geometric Means Day 21: Day 21 post-treatment; for Sheep Body Lice Efficacy Based on Geometric Means Day 41/42: Day 41/42 post-treatment; for Sheep Body Lice Efficacy Based on Geometric Means Day 84: Day 84 post-treatment; for Sheep Body Lice Efficacy Based on Geometric Means Day 140: Day 140 post-treatment
Protocol: In this study the efficacy of fluralaner when administered once subcutaneously at doses of 1 and 2 mg/kg body weight within 1 week prior to shearing, within 24 hours after shearing and 6 weeks after shearing against sheep body lice (Bovicola ovis) infestation on Merino sheep was evaluated.
Fluralaner was administered to sheep in Groups 2 and 3 seven days pre-shearing, Groups 4 and 5 within 24 hours after shearing and Groups 6 and 7 forty-two days post-shearing at either 1 mg/kg (Group 2, 4 and 6) or 2 mg/kg (Group 3, 5 and 7). Group 1 was left untreated as a negative control. All sheep were shorn on Day 0.
Lice counts were conducted on all sheep on Day −8 to −7 for allocation. Pre-treatment lice counts were conducted on Groups 2 and 3 on Day −8 to −7 (i.e. allocation counts), on Group 4 and 5 on Day −1 (pre-shearing) and on Group 6 and 7 on Day 41 (post-shearing). Post-treatment lice counts were conducted 7, 14, 21, 42, 84 and 140 days±1-day post-treatment. Group 1 was counted on each day that a lice count was conducted on a treated group for comparison purposes. Lice counts were performed as described in Example 1.

[3] = test system: biting/chewing lice (Bovicola bovis); experiment: Biting lice efficacy study in cattle, natural infestation, single subcutaneous injection; details: 1 mg/kg s.c.
Protocol: (§1) This study determined the efficacy (via reductions in total lice counts) of fluralaner in an injectable suspension formulation against natural infestations of cattle sucking (Haematopinus eurysternus, Linognathus vituli) and biting/chewing lice (Bovicola bovis) when applied at a single dose to young, lice infested cattle. Treatment efficacy was determined by whole body lice counts post treatment and comparison of treated and untreated (placebo) group mean lice counts. The naturally acquired louse infestations consisted of 2 species of sucking lice (Haematopinus eurysternus and Linognathus vituli) and the biting louse Bovicola bovis. Each animal was examined in a cattle crush prior to being selected from the parent mob to ensure that more than 30 sucking lice (combined total of both sucking lice species) were present. Fluralaner at a dose level of 1.0 mg/kg bw and Control Product were administered to cattle by subcutaneous injection. The numbers of live adults and live nymphs for each species of lice on each animal were counted at 7-day intervals starting with pre-treatment counts on Day −1 and post-treatment on Days 7, 14, 21, 28, 35, 42, 49 and 56.

[4] = test system: cattle sucking lice (Haematopinus eurysternus, Linognathus vituli); experiment: Sucking lice efficacy study in cattle, natural infestation, single subcutaneous injection; details: 1 mg/kg s.c.
Protocol: as §1

[5] = test system: sheep body lice (Bovicola ovis), diazinon resistant; experiment: Long wool lice efficacy study, single subcutaneous dose, Merino sheep with 3 months wool growth
Protocol: In this study the efficacy of fluralaner when administered once subcutaneously at doses of 1 and 2 mg/kg body weight against sheep body lice (Bovicola ovis) infestation on Merino sheep with 3 months wool growth was evaluated.
Fluralaner was administered to sheep in Groups 2 and 3 on Day 0 at 1 and 2 mg fluralaner/kg bodyweight respectively. Group 1 was left untreated as a negative control.
Pre-treatment lice counts were conducted on Day −1 and used to allocate sheep to treatment groups. Post-treatment lice counts were conducted 7, 14, 21, 42, 84 and 140 days±1-day post-treatment. Lice counts were performed as discussed in Example 1.

[6] = 1 mg/kg s.c., treated 7 days pre-shearing
[7] = 1 mg/kg s.c., treated 42 days post-shearing
[8] = 1 mg/kg s.c., treated within 24 hours after shearing
[9] = 2 mg/kg s.c., treated 7 days pre-shearing
[10] = 2 mg/kg s.c., treated 42 days post-shearing
[11] = 2 mg/kg s.c., treated within 24 hours after shearing

Cc1cc(C2=NOC(c3cc(Cl)cc(Cl)c3)(C(F)(F)F)C2)ccc1C(=O)NCC(=O)NCC(F)(F)F (centres unmarked) [Fluralaner, 4-[5-(3,5-dichlorophenyl)-5-trifluoromethyl-4,5-dihydroisoxazol-3-yl]-2-methyl-N-[(2,2,2-trifluoro-ethylcarbamoyl)-methyl]-benzamide]
lice or viable lice eggs found after challenge [1]: No lice or viable lice eggs were found | Sheep Body Lice Efficacy Based on Geometric Means Day 7 [2, 6]: 93.9% | Sheep Body Lice Efficacy Based on Geometric Means Day 14 [2, 6]: 97.7% | Sheep Body Lice Efficacy Based on Geometric Means Day 21 [2, 6]: 99.7% | Sheep Body Lice Efficacy Based on Geometric Means Day 41/42 [2, 6]: 100.0% | Sheep Body Lice Efficacy Based on Geometric Means Day 84 [2, 6]: 100.0% | Sheep Body Lice Efficacy Based on Geometric Means Day 140 [2, 6]: 100.0% | Sheep Body Lice Efficacy Based on Geometric Means Day 7 [2, 7]: 94.4% | Sheep Body Lice Efficacy Based on Geometric Means Day 14 [2, 7]: 99.5% | Sheep Body Lice Efficacy Based on Geometric Means Day 21 [2, 7]: 100.0% | Sheep Body Lice Efficacy Based on Geometric Means Day 41/42 [2, 7]: 100.0% | Sheep Body Lice Efficacy Based on Geometric Means Day 84 [2, 7]: 100.0% | Sheep Body Lice Efficacy Based on Geometric Means Day 140 [2, 7]: 100.0% | Sheep Body Lice Efficacy Based on Geometric Means Day 7 [2, 8]: 39.5% | Sheep Body Lice Efficacy Based on Geometric Means Day 14 [2, 8]: 83.1% | Sheep Body Lice Efficacy Based on Geometric Means Day 21 [2, 8]: 98.8% | Sheep Body Lice Efficacy Based on Geometric Means Day 41/42 [2, 8]: 99.9% | Sheep Body Lice Efficacy Based on Geometric Means Day 84 [2, 8]: 100.0% | Sheep Body Lice Efficacy Based on Geometric Means Day 140 [2, 8]: 100.0% | time until efficacy reached the required level (no lice detected) ([2]; 2.0 mg/kg dose rate, all wool lengths except off-shears): ≤ 14 days post-treatment | Sheep Body Lice Efficacy Based on Geometric Means Day 7 [2, 9]: 96.7% | Sheep Body Lice Efficacy Based on Geometric Means Day 14 [2, 9]: 100.0% | Sheep Body Lice Efficacy Based on Geometric Means Day 21 [2, 9]: 100.0% | Sheep Body Lice Efficacy Based on Geometric Means Day 41/42 [2, 9]: 100.0% | Sheep Body Lice Efficacy Based on Geometric Means Day 84 [2, 9]: 100.0% | Sheep Body Lice Efficacy Based on Geometric Means Day 140 [2, 9]: 100.0% | Sheep Body Lice Efficacy Based on Geometric Means Day 7 [2, 10]: 96.8% | Sheep Body Lice Efficacy Based on Geometric Means Day 14 [2, 10]: 100.0% | Sheep Body Lice Efficacy Based on Geometric Means Day 21 [2, 10]: 100.0% | Sheep Body Lice Efficacy Based on Geometric Means Day 41/42 [2, 10]: 100.0% | Sheep Body Lice Efficacy Based on Geometric Means Day 84 [2, 10]: 100.0% | Sheep Body Lice Efficacy Based on Geometric Means Day 140 [2, 10]: 100.0% | Sheep Body Lice Efficacy Based on Geometric Means Day 7 [2, 11]: 86.6% | Sheep Body Lice Efficacy Based on Geometric Means Day 14 [2, 11]: 97.1% | Sheep Body Lice Efficacy Based on Geometric Means Day 21 [2, 11]: 99.2% | Sheep Body Lice Efficacy Based on Geometric Means Day 41/42 [2, 11]: 99.4% | Sheep Body Lice Efficacy Based on Geometric Means Day 84 [2, 11]: 99.9% | Sheep Body Lice Efficacy Based on Geometric Means Day 140 [2, 11]: 100.0% | viable lice eggs ([2]; 1 and 2 mg/kg, all three treatment times, out to 140 days post-treatment): no viable lice eggs were detected | efficacy against the biting lice B. bovis ([3]; Day 7): 91.74% | efficacy against the biting lice B. bovis ([3]; by Day 14): 100% | lice found on treated cattle ([3]; from Day 21 until Day 56): no lice of any species found | efficacy (based on Arithmetic Means) against the sucking lice ([4]; Day 7): 97.69% | efficacy (based on Arithmetic Means) against the sucking lice ([4]; Day 14): 99.89% | lice found on treated cattle ([4]; from Day 21 until Day 56): no lice of any species found | time until activity reached the required level ([5]; 1.0 mg/kg dose rate): ≤ 42 days post-treatment | Sheep Body Lice Efficacy Based on Geometric Means Day 7 ([5]; 1 mg/kg s.c.): 81.8% | Sheep Body Lice Efficacy Based on Geometric Means Day 14 ([5]; 1 mg/kg s.c.): 97.2% | Sheep Body Lice Efficacy Based on Geometric Means Day 21 ([5]; 1 mg/kg s.c.): 99.6% | Sheep Body Lice Efficacy Based on Geometric Means Day 42 ([5]; 1 mg/kg s.c.): 100.0% | Sheep Body Lice Efficacy Based on Geometric Means Day 84 ([5]; 1 mg/kg s.c.): 100.0% | Sheep Body Lice Efficacy Based on Geometric Means Day 140 ([5]; 1 mg/kg s.c.): 100.0% | time until efficacy reached the required level ([5]; 2.0 mg/kg dose rate): ≤ 14 days post-treatment | Sheep Body Lice Efficacy Based on Geometric Means Day 7 ([5]; 2 mg/kg s.c.): 95.2% | Sheep Body Lice Efficacy Based on Geometric Means Day 14 ([5]; 2 mg/kg s.c.): 100.0% | Sheep Body Lice Efficacy Based on Geometric Means Day 21 ([5]; 2 mg/kg s.c.): 100.0% | Sheep Body Lice Efficacy Based on Geometric Means Day 42 ([5]; 2 mg/kg s.c.): 100.0% | Sheep Body Lice Efficacy Based on Geometric Means Day 84 ([5]; 2 mg/kg s.c.): 100.0% | Sheep Body Lice Efficacy Based on Geometric Means Day 140 ([5]; 2 mg/kg s.c.): 100.0%
